Legend:
polyamine transporter [1] = assay: Inhibition of [14C]spermine uptake in ZR-75-1 cells; type: cell-based, human; conditions: 3μM substrate (Example 11), read-out: Ki, [14C]spermine transport
polyamine transporter [2] = assay: Inhibition of [3H]putrescine uptake in ZR-75-1 cells; type: cell-based, human; conditions: for Mode of inhibition of [3H]putrescine uptake: Lineweaver-Burke, DESC up to 100 μM, MESC up to 200 μM; for Ki: ZR-75-1 cells
Procedure: (§1) The rate of putrescine and spermidine transport was determined in ZR-75-1 cells incubated in serum-free RPMI 1640 medium as described (Lessard, M., Zhao, C., Singh, S. M. and Poulin, R. 1995. J. Biol. Chem. 270: 1685-1694), using [^3H]putrescine (30 Ci/mol) and [^3H]spermidine (20 Ci/mol), respectively as substrates for a 20 minute-assay period. Spermine uptake was similarly determined, using 1 μM [^14C]spermine (32 Ci/mol) as substrate. Uptake activity was expressed per amount of DNA as fluorometrically determined using 3,4-diaminobenzoic acid (Simard, J., Dauvois, S., Haagensen, D. E., Lėvesque, C., Mėrand, Y. and Labrie, F. 1990. Endocrinology, 126: 3223-3231). For the determination of spermidine uptake activity in CHO-K1 cells, 80% confluent cell monolayers were rinsed twice with PBS and incubated for 20 minutes at 37° C. in 400 μl of buffer A (20 mM Tris-HCl, pH 7.4; 0.42 mM CaCl2; 0.41 mM MgSO4; 103 mM NaCl; 5.7 mM KCl; 1.1 mM D-glucose) containing 5 μM [^3H]spermidine (20 Ci/mol). Cell cultures were then washed twice with 1 ml PBS containing 5.7 mM sym-norspermidine. Cells were then lysed with 200-μl aliquot of 1 N NaOH and incubated for 30 minutes at 60° C. After neutralization with 200 μl of 1 N HCl, radioactivity was determined from a 250-μl of the cell lysate by scintillation counting. Uptake activity was expressed per amount of total cellular protein as determined by the method of Bradford (Bradford, M. M. 1976. Anal. Biochem. 72: 248-254). Non-specific binding of radioactive substrate was similarly determined in parallel for both cell lines after a 15 second-incubation with 400 μl of ice-cold uptake solution.
(§2) Kinetic analysis of polyamine transport was performed by determining uptake activity in the presence of a 3 μM [^3H]putrescine or 1 μM [^3H]spermidine plus increasing concentrations of nonradioactive substrate. K[…] Ki and Vmax values were then estimated by Lineweaver-Burke analysis. For competitive inhibitors, Ki values were also estimated by measuring uptake activity in the presence of logarithmically increasing concentrations of antagonist, and using the Cheng-Prusoff equation (Cheng, Y.-C. and Prusoff, W. H. 1973. Biochem. Pharmacol. 22: 3099-3108) by iterative curve fitting for a sigmoidal curve. For mixed competitive/noncompetitive inhibition, two methods were used to calculate kinetic constants. First, the equation [drawing 2] where v, s, and i are the transport velocity, substrate concentration and inhibitor concentration respectively, was used to calculate the inhibition constants for inhibitor/carrier complex formation (Ki) and carrier/inhibitor/substrate complex formation (Ki′) (Dixon, M. and Webb, E. C. 1976. Enzymes, 3rd Ed., Academic Press, San Diego, Calif.). Alternatively, the value of Ki for a mixed competitor/non-competitor was estimated from the intersect of equations v^−1 vs i at two different substrate concentrations (Dixon, M. and Webb, E. C. 1976. Enzymes, 3rd Ed., Academic Press, San Diego, Calif.). Intracellular Accumulation
(§3) In order to evaluate the effectiveness of dimeric triamines as polyamine transport inhibitors, we synthesized N,N′-bis(3-aminopropyl),N,N′-bis(4-aminobutyl)cystamine or BABAC (structure 1, FIG. 25; FIG. 31), and its thiol form N-(3-aminopropyl),N-(4-aminobutyl)cysteamine or AAC (FIG. 31) according to Scheme 4 described above (FIG. 30), using spermidine as a precursor polyamine. The ability of BABAC and AAC to inhibit the intracellular uptake of radio-labeled putrescine and spermidine in the ZR-75-1 human breast cancer cell line was then determined according to standard published procedures (Lessard, et al. and Poulin, et al.) Briefly, ZR-75-1 cells were grown for four days in twenty-four well plates in RPMI 1640 medium supplemented with 10% fetal bovine serum.

ZR-75-1 cells [3] = assay: Effect on ZR-75-1 cell proliferation (11 days, DNA content); type: cell-based, human
Procedure: For growth studies, ZR-75-1 cells were cultured in MEZR medium or in phenol red-free RPMI 1640 supplemented with 2 mM L-glutamine, 1 mM sodium pyruvate, 15 mM Hepes, antibiotics, 1 nM 17β-estradiol, 0.5 μg of bovine insulin per ml and 5% (v/v) charcoal-treated fetal bovine serum (SD medium), as indicated in the text. When polyamines or polyamine analogs were added to serum-containing media, 1 mM aminoguanidine was added to inhibit bovine serum amine oxidase (BSAO) activity (Morgan, D. M. L. 1989, in The Physiology of Polyamines (Bachrach, U., and Heimer, Y. M. eds) Vol. I, pp. 203-229, CRC Press, Boca Raton). The effect of the transport inhibitors on cell growth was measured by incubating ZR-75-1 cells for 11 days in medium supplemented with antagonist, polyamines and/or 1 mM DFMO as indicated, followed by colorimetric determination of DNA content with 3,4-diaminobenzoic acid (Simard, J., Dauvois, S., Haagensen, D. E., Lėvesque C., Mėrand, Y. and Labriė, F. 1990. Endocrinology 126: 3223-3231). Medium was changed every other day in these experiments because of the slow reaction of the compound with an unknown component present in the IMEM and RPMI 1640 medium formulation.
The biocompatibility of DESC, MESC, and DEASC was thus evaluated during a long-term (11-day) incubation with ZR-75-1 cells grown in RPMI 1640 containing 10% (v/v) FBS in the absence and presence of 1 mM aminoguanidine. […] Weak growth inhibition caused by the mixed MESC-cysteamine disulfide, however, apparently involved degradation by a copper amine oxidase.

[4] = Stability in buffered aqueous solution; type: physicochemical; conditions: buffered at pH=7.0
polyamine transporter [5] = assay: Inhibition of [3H]spermidine uptake in ZR-75-1 cells; type: cell-based, human
Procedure: as §1
as §2, with “Alternatively, the value of Ki for a mixed competitor/non-competitor was estimated from the intersect of equations v^−1 vs i at two different substrate concentrations (Dixon, M. and Webb, E. C. 1976. Enzymes, 3rd Ed., Academic Press, San Diego, Calif.). Intracellular Accumulation” left out
as §3

ZR-75-1 cells [6] = assay: Time course of intracellular [3H]spermidine accumulation in presence of transport antagonists; type: cell-based, human; conditions: 200 μM DESC (40-fold excess), 5 μM [3H]spermidine, after 6 hours
Procedure: The time course of intracellular accumulation of spermidine in the presence of transport antagonists was determined by incubating ZR-75-1 cells in 24-well plates with DESC (50 or 200 μM) or MESC (200 μM) in dissolved in MEZR medium containing 5 μM [^3H]spermidine in the presence or absence of cycloheximide (CHX, 200 μM), and harvesting at the indicated times for the determination of intracellular radioactive contents, as described above for polyamine uptake assays.

[7] = this work, DEASC: Ki of mixed competitive/non-competitive model, read-out: Ki, putrescine transport

| SMILES | Ki (polyamine transporter [1]) [µM] | Mode of inhibition of [3H]putrescine uptake (polyamine transporter [2]) | Ki (polyamine transporter [2]; FIG. 32, 20 μM and 3 μM substrate, respectively, read-out: Apparent Ki, putrescine uptake) [µM] | Ki (polyamine transporter [2]; [7]) [µM] | Effect on cell growth (ZR-75-1 cells [3]; 50 μM, with or without 1 mM aminoguanidine) | Effect on cell growth (ZR-75-1 cells [3]; 200 μM) | Stability in aqueous solutions [4] | Ki (polyamine transporter [5]; FIG. 32, 20 μM and 3 μM substrate, respectively, read-out: Apparent Ki, spermidine uptake) [µM] | Ki (polyamine transporter [5]; this work, read-out: Ki, spermidine transport) [µM] | Decrease of net spermidine accumulation (ZR-75-1 cells [6]) [%] | Decrease in cell growth (ZR-75-1 cells [3]; 200 μM, not blocked by aminoguanidine) [%] |
| --- | --- | --- | --- | --- | --- | --- | --- | --- | --- | --- | --- |
| NCCCNCCCC(NCCCN)C(=O)NCCSSCCNC(=O)C(CCCNCCCN)NCCCN (stereo not shown) [DESC, 2,2′-dithiobis(N-ethyl-spermine-5-carboxamide)] | 17 | pure competitive inhibitors | 0.54 | 1.6 ± 0.5 | only mildly growth inhibitory | abrupt, aminoguanidine-resistant increase in toxicity | stable for months | 5.6 | 2.7 ± 1.1 | 50 |  |
| NCCCNCCCC(NCCCN)C(=O)NCCS (stereo not shown) [MESC, N-(2-mercaptoethyl)spermine-5-carboxamide] |  | pure competitive inhibitors |  | 22 ± 3 |  |  |  |  |  |  | 35 |

— patent US6949679B1, “Polyamine transport inhibitors” (Universite Laval, priority 1998, dated 2005)
